These results are taken from US8728506B2, “Durable pest repellent and pest repellent resin composition” (Toagosei Co., Ltd., priority 2009, dated 2014).

The subject of data set [1] is house dust mite. Briefly: Evaluation of persistence of repellence (after heating), JIS L 1920. Format: in vivo. The following applies: polyethylene plate, repellent chemical 0.3 %; held at 81° C. for 48 hours. How it is done:
(§1) Plates molded after adding the pest repellents prepared in Examples 1-1 to 1-10 and Comparative Examples 1-1 to 1-14 and Comparative Reference Example 1-1 to a polyethylene resin (PE-NUC-8350 manufactured by Nippon Unicar Co., Ltd.) so that the pest repellent component was 0.3 mass % were held in a dryer at 81° C. for 48 hours. They were cut into circles having a diameter of a little under 4 cm and subjected to a test for anti-mite properties. The test was carried by an intrusion-prevention method in accordance with JIS L 1920 ‘Testing methods for efficacy against house dust mite of textiles’. Plates molded after adding the durable pest repellents prepared in Examples 2-1 to 2-12, the comparative pest repellents prepared in Comparative Examples 2-1 to 2-4, and Comparative Reference Example 2-1 to a polyethylene resin (PE-NUC-8350 manufactured by Nippon Unicar Co., Ltd.) so that the pest repellent component was 0.3 mass % were held in a dryer at 81° C. for 48 hours. They were cut into circles having a diameter of a little under 4 cm and subjected to a test for anti-mite properties. The test was carried by an intrusion-prevention method in accordance with JIS L 1920 ‘Testing methods for efficacy against house dust mite of textiles’.

Data set [2] is described as follows: Evaluation of resin moldability (injection molding in polyethylene resin). Format: physicochemical. Conditions: repellent chemical 0.3 %, molding 250° C., residence 5 min. From the text: The durable pest repellents prepared in Examples 1-1 to 1-10, and the comparative pest repellents prepared in Comparative Examples 1-1 to 1-14 and Comparative Reference Example 1-1 were mixed with a polyethylene resin (PE-NUC-8350, Nippon Unicar Co., Ltd.). For example, in the durable pest repellent of Example 1-1, since the amount of pest repellent chemical supported was 3 mass %, when the amount of repellent added in a resin composition shown in Table 2 was 5%, the amount of pest repellent chemical added was calculated as 0.15 mass %, and when the amount of repellent added in the resin composition was 10%, the amount of pest repellent chemical added was calculated as 0.3 mass %.
Resin compositions were produced by adjusting the amount of each repellent added to the resin composition so that the amount of pest repellent chemical added in the resin composition was 0.3 mass %, 0.15%, and 0.6%, they were injection-molded into flat plates, and evaluation of whether kneading into the resin was possible was carried out. Molding was carried out using a Model M-50A(II)-DM manufactured by Meiki Co., Ltd. at a molding temperature of 250° C., thus giving 10 cm square plates having a thickness of 2 mm. Furthermore, the residence time was 5 minutes, and checks as to whether or not there was foaming, a strange smell, or discoloration during molding were carried out. […]
The durable pest repellents prepared in Examples 2-1 to 2-12, the comparative pest repellents prepared in Comparative Examples 2-1 to 2-4, and Comparative Reference Example 2-1 were mixed with a polyethylene resin (PE-NUC-8350, Nippon Unicar Co., Ltd.). For example, in the durable pest repellent of Example 2-1, since the amount of pest repellent chemical supported was 5 mass %, when the amount of repellent added in a resin composition shown in Table 4 was 3%, the amount of pest repellent chemical added was calculated as 0.15 mass %, and when the amount of repellent added in the resin composition was […], the amount of pest repellent chemical added was calculated as 0.3 mass %. […]

Data set [3] is described as follows: Heat resistance by thermal analysis (TG/DTA in air). Format: physicochemical. Conditions: temperature at which amount of supported chemical component is reduced by 1/3, 30-600° C., 20° C./min. Here is the method: Furthermore, it was confirmed by thermal analysis that the supported N,N-diethyl-m-toluamide acquired heat resistance. The thermal analysis was carried out using a Model TG/DTA220 manufactured by Seiko Instruments under an air atmosphere, the measurement temperature was 30° C. to 600° C., and the rate of temperature increase was 20° C./min. Since the measurement is carried out in air, the overall heat resistance in air including vaporization and oxidative decomposition can be evaluated, and N,N-diethyl-m-toluamide that only adheres to the surface of a porous substance having a large specific surface area is subjected to oxidative decomposition at relatively low temperature and the weight decreases, whereas it is expected that N,N-diethyl-m-toluamide that is packed between layers of the inorganic layered compound without gaps is resistant to vaporization and oxidative decomposition and the weight will be maintained up to a higher temperature. […]

The test system of data set [4] is house dust mite. Nature of the data set: Evaluation of repellency, anti-mite intrusion-prevention method JIS L 1920. The class given is in vivo. Conditions: polyethylene plate, repellent chemical 0.3 %. How it is done: as §1, with “chemical” for “component”, “of the entire resin composition” for “were held in a dryer at 81° C. for 48 hours. They”, “2-4,” for “2-12, the”

For `CCN(CC)C(=O)c1cccc(C)c1` [Comp. Ref. Ex. 1-1, N,N-diethyl-m-toluamide], the Post-heating percentage repellence in data set [1] came out at 0%. Besides, in data set [2], the “Molding properties Bad smell” value is reported as “Some”, the “Molding properties Coloration” value was “None” and the “Molding properties Foaming” value is “Some”. In data set [3], this compound returned a Heat resistance of 180 °C. In data set [4], this compound came in with an Initial percentage repellence of 21%.
